Like-named read-outs stand apart in the source and are kept apart here.
System: several cell lines (Panel/Cell Line)
Assay: GI50, TGI and LC50 of compound II-21 for several cell lines (Table 12)

Question: With `C(=N/Nc1ncnc2sc3c(c12)CCCC3)/c1ccccn1` [II-21] as the compound, how does the GI50 (48 h, Leukemia, SR, 48-h exposure) read?
Answer: 0.368 µM

Question: What about the GI50 (48 h, Melanoma, M14, 48-h exposure) of the same compound?
Answer: 0.246 µM

Question: What about the GI50 (48 h, Prostate Cancer, PC-3, 48-h exposure) of the same compound?
Answer: 0.431 µM

Question: And the CC50 (48 h, read-out: LC50 (M), Leukemia, SR, 48-h exposure)?
Answer: > 0.0001 M

Question: And the CC50 (48 h, read-out: LC50 (M), Melanoma, M14, 48-h exposure)?
Answer: 3.34e-05 M

Question: What about the CC50 (48 h, read-out: LC50 (M), Prostate Cancer, PC-3, 48-h exposure) of the same compound?
Answer: > 0.0001 M

Question: And the “TGI” value (Breast Cancer, BT-549, 48-h exposure)?
Answer: 28.7 µM

Question: What about the “TGI” value (Breast Cancer, HS 578T, 48-h exposure) of the same compound?
Answer: 23.9 µM

Question: And the “TGI” value (Breast Cancer, MCF7, 48-h exposure)?
Answer: 15.3 µM

Question: And the “TGI” value (Breast Cancer, MDA-MB-231/ATCC, 48-h exposure)?
Answer: 29.7 µM

Question: What about the “TGI” value (Breast Cancer, MDA-MB-468, 48-h exposure) of the same compound?
Answer: 0.505 µM

Question: And the “TGI” value (Breast Cancer, T-47D, 48-h exposure)?
Answer: 28 µM

Question: And the “TGI” value (CNS Cancer, SF-268, 48-h exposure)?
Answer: 15.1 µM

Question: And the “TGI” value (CNS Cancer, SF-295, 48-h exposure)?
Answer: 12.1 µM

Question: What about the “TGI” value (CNS Cancer, SF-539, 48-h exposure) of the same compound?
Answer: 3.84 µM

Question: And the “TGI” value (CNS Cancer, SNB-19, 48-h exposure)?
Answer: 34.1 µM

Question: What about the “TGI” value (CNS Cancer, SNB-75, 48-h exposure) of the same compound?
Answer: 14.7 µM

Question: And the “TGI” value (CNS Cancer, U251, 48-h exposure)?
Answer: 12.1 µM

Question: What about the “TGI” value (Colon Cancer, COLO 205, 48-h exposure) of the same compound?
Answer: 14.7 µM

Question: What about the “TGI” value (Colon Cancer, HCC-2998, 48-h exposure) of the same compound?
Answer: 22.9 µM

Question: What about the “TGI” value (Colon Cancer, HCT-15, 48-h exposure) of the same compound?
Answer: 27 µM

Question: And the “TGI” value (Colon Cancer, HCT-116, 48-h exposure)?
Answer: 14.2 µM

Question: And the “TGI” value (Colon Cancer, HT29, 48-h exposure)?
Answer: 15.1 µM

Question: What about the “TGI” value (Colon Cancer, KM12, 48-h exposure) of the same compound?
Answer: 12.7 µM

Question: What about the “TGI” value (Colon Cancer, SW-620, 48-h exposure) of the same compound?
Answer: 17.9 µM

Question: What about the GI50 (Homo sapiens, 786-0, 48 h, Renal Cancer, 786-0, 48-h exposure) of the same compound?
Answer: 0.333 µM

Question: And the CC50 (Homo sapiens, 786-0, 48 h, read-out: LC50 (M), Renal Cancer, 786-0, 48-h exposure)?
Answer: 4.44e-05 M

Question: And the GI50 (Homo sapiens, A498, 48 h, Renal Cancer, A498, 48-h exposure)?
Answer: 0.428 µM

Question: What about the CC50 (Homo sapiens, A498, 48 h, read-out: LC50 (M), Renal Cancer, A498, 48-h exposure) of the same compound?
Answer: 3.72e-05 M

Question: And the GI50 (Homo sapiens, A549, 48 h, Non-Small Cell Lung Cancer, A549/ATCC, 48-h exposure)?
Answer: 0.389 µM

Question: What about the CC50 (Homo sapiens, A549, 48 h, read-out: LC50 (M), Non-Small Cell Lung Cancer, A549/ATCC, 48-h exposure) of the same compound?
Answer: 7.13e-05 M

Question: And the GI50 (Homo sapiens, ACHN, 48 h, Renal Cancer, 48-h exposure)?
Answer: 0.313 µM

Question: And the CC50 (Homo sapiens, ACHN, 48 h, read-out: LC50 (M), Renal Cancer, ACHN, 48-h exposure)?
Answer: > 0.0001 M

Question: What about the GI50 (Homo sapiens, BT-549, 48 h, Breast Cancer, BT-549, 48-h exposure) of the same compound?
Answer: 0.394 µM

Question: What about the CC50 (Homo sapiens, BT-549, 48 h, read-out: LC50 (M), Breast Cancer, BT-549, 48-h exposure) of the same compound?
Answer: > 0.0001 M

Question: What about the GI50 (Homo sapiens, CAKI-1, 48 h, Renal Cancer, CAKI-1, 48-h exposure) of the same compound?
Answer: 0.313 µM

Question: And the CC50 (Homo sapiens, CAKI-1, 48 h, read-out: LC50 (M), Renal Cancer, CAKI-1, 48-h exposure)?
Answer: > 0.0001 M

Question: And the GI50 (Homo sapiens, CCRF-CEM, 48 h, Leukemia, 48-h exposure)?
Answer: 0.242 µM

Question: What about the CC50 (Homo sapiens, CCRF-CEM, 48 h, read-out: LC50 (M), Leukemia, CCRF-CEM, 48-h exposure) of the same compound?
Answer: > 0.0001 M

Question: And the GI50 (Homo sapiens, COLO 205, 48 h, Colon Cancer, COLO 205, 48-h exposure)?
Answer: 0.315 µM

Question: What about the CC50 (Homo sapiens, COLO 205, 48 h, read-out: LC50 (M), Colon Cancer, COLO 205, 48-h exposure) of the same compound?
Answer: 5.45e-05 M

Question: What about the GI50 (Homo sapiens, DU-145, 48 h, Prostate Cancer, DU-145, 48-h exposure) of the same compound?
Answer: 0.41 µM

Question: What about the CC50 (Homo sapiens, DU-145, 48 h, read-out: LC50 (M), Prostate Cancer, DU-145, 48-h exposure) of the same compound?
Answer: 5.16e-05 M

Question: What about the GI50 (Homo sapiens, EKVX, 48 h, Non-Small Cell Lung Cancer, 48-h exposure) of the same compound?
Answer: 0.317 µM

Question: And the CC50 (Homo sapiens, EKVX, 48 h, read-out: LC50 (M), Non-Small Cell Lung Cancer, EKVX, 48-h exposure)?
Answer: > 0.0001 M

Question: What about the GI50 (Homo sapiens, HCC 2998, 48 h, Colon Cancer, HCC-2998, 48-h exposure) of the same compound?
Answer: 10 µM

Question: And the CC50 (Homo sapiens, HCC 2998, 48 h, read-out: LC50 (M), Colon Cancer, HCC-2998, 48-h exposure)?
Answer: 5.26e-05 M

Question: What about the GI50 (Homo sapiens, HCT-15, 48 h, Colon Cancer, HCT-15, 48-h exposure) of the same compound?
Answer: 0.45 µM

Question: What about the CC50 (Homo sapiens, HCT-15, 48 h, read-out: LC50 (M), Colon Cancer, HCT-15, 48-h exposure) of the same compound?
Answer: > 0.0001 M

Question: And the GI50 (Homo sapiens, HCT-116, 48 h, Colon Cancer, HCT-116, 48-h exposure)?
Answer: 0.166 µM

Question: What about the CC50 (Homo sapiens, HCT-116, 48 h, read-out: LC50 (M), Colon Cancer, HCT-116, 48-h exposure) of the same compound?
Answer: 6.74e-05 M

Question: What about the GI50 (Homo sapiens, HL-60, 48 h, Leukemia, HL-60(TB), 48-h exposure) of the same compound?
Answer: 0.12 µM

Question: And the CC50 (Homo sapiens, HL-60, 48 h, read-out: LC50 (M), Leukemia, HL-60(TB), 48-h exposure)?
Answer: > 0.0001 M

Question: And the GI50 (Homo sapiens, HOP-62, 48 h, Non-Small Cell Lung Cancer, HOP-62, 48-h exposure)?
Answer: 0.395 µM

Question: And the CC50 (Homo sapiens, HOP-62, 48 h, read-out: LC50 (M), Non-Small Cell Lung Cancer, HOP-62, 48-h exposure)?
Answer: > 0.0001 M

Question: What about the GI50 (Homo sapiens, HOP-92, 48 h, Non-Small Cell Lung Cancer, HOP-92, 48-h exposure) of the same compound?
Answer: 0.417 µM

Question: And the CC50 (Homo sapiens, HOP-92, 48 h, read-out: LC50 (M), Non-Small Cell Lung Cancer, HOP-92, 48-h exposure)?
Answer: > 0.0001 M

Question: What about the GI50 (Homo sapiens, HT-29, 48 h, Colon Cancer, HT29, 48-h exposure) of the same compound?
Answer: 0.18 µM

Question: And the CC50 (Homo sapiens, HT-29, 48 h, read-out: LC50 (M), Colon Cancer, HT29, 48-h exposure)?
Answer: 4.49e-05 M

Question: And the GI50 (Homo sapiens, Hs-578T, 48 h, Breast Cancer, HS 578T, 48-h exposure)?
Answer: 0.748 µM

Question: And the CC50 (Homo sapiens, Hs-578T, 48 h, read-out: LC50 (M), Breast Cancer, HS 578T, 48-h exposure)?
Answer: > 0.0001 M

Question: And the GI50 (Homo sapiens, IGROV-1, 48 h, Ovarian Cancer, IGROV1, 48-h exposure)?
Answer: 0.45 µM

Question: What about the CC50 (Homo sapiens, IGROV-1, 48 h, read-out: LC50 (M), Ovarian Cancer, IGROV1, 48-h exposure) of the same compound?
Answer: > 0.0001 M

Question: What about the GI50 (Homo sapiens, K562, 48 h, Leukemia, K-562, 48-h exposure) of the same compound?
Answer: 0.284 µM

Question: What about the CC50 (Homo sapiens, K562, 48 h, read-out: LC50 (M), Leukemia, K-562, 48-h exposure) of the same compound?
Answer: > 0.0001 M

Question: What about the GI50 (Homo sapiens, KM12, 48 h, Colon Cancer, KM12, 48-h exposure) of the same compound?
Answer: 0.515 µM

Question: And the CC50 (Homo sapiens, KM12, 48 h, read-out: LC50 (M), Colon Cancer, KM12, 48-h exposure)?
Answer: 3.81e-05 M

Question: What about the GI50 (Homo sapiens, LOX IMVI, 48 h, Melanoma, 48-h exposure) of the same compound?
Answer: 0.256 µM

Question: What about the CC50 (Homo sapiens, LOX IMVI, 48 h, read-out: LC50 (M), Melanoma, LOX IMVI, 48-h exposure) of the same compound?
Answer: 3.48e-05 M

Question: And the GI50 (Homo sapiens, MCF7, 48 h, Breast Cancer, MCF7, 48-h exposure)?
Answer: 0.336 µM

Question: And the CC50 (Homo sapiens, MCF7, 48 h, read-out: LC50 (M), Breast Cancer, MCF7, 48-h exposure)?
Answer: 8e-05 M

Question: And the GI50 (Homo sapiens, MDA-MB-231, 48 h, Breast Cancer, MDA-MB-231/ATCC, 48-h exposure)?
Answer: 0.603 µM

Question: What about the CC50 (Homo sapiens, MDA-MB-231, 48 h, read-out: LC50 (M), Breast Cancer, MDA-MB-231/ATCC, 48-h exposure) of the same compound?
Answer: > 0.0001 M

Question: And the GI50 (Homo sapiens, MDA-MB-435, 48 h, Melanoma, MDA-MB-435, 48-h exposure)?
Answer: 0.477 µM

Question: And the CC50 (Homo sapiens, MDA-MB-435, 48 h, read-out: LC50 (M), Melanoma, MDA-MB-435, 48-h exposure)?
Answer: > 0.0001 M

Question: And the GI50 (Homo sapiens, MDA-MB-468, 48 h, Breast Cancer, MDA-MB-468, 48-h exposure)?
Answer: 0.2 µM

Question: And the CC50 (Homo sapiens, MDA-MB-468, 48 h, read-out: LC50 (M), Breast Cancer, MDA-MB-468, 48-h exposure)?
Answer: 4.1e-05 M

Question: What about the GI50 (Homo sapiens, MOLT-4, 48 h, Leukemia, MOLT-4, 48-h exposure) of the same compound?
Answer: 0.261 µM

Question: And the CC50 (Homo sapiens, MOLT-4, 48 h, read-out: LC50 (M), Leukemia, MOLT-4, 48-h exposure)?
Answer: > 0.0001 M

Question: And the GI50 (Homo sapiens, Malme-3M, 48 h, Melanoma, 48-h exposure)?
Answer: 0.275 µM

Question: What about the CC50 (Homo sapiens, Malme-3M, 48 h, read-out: LC50 (M), Melanoma, MALME-3M, 48-h exposure) of the same compound?
Answer: 5.14e-05 M

Question: What about the GI50 (Homo sapiens, NCI-H23, 48 h, Non-Small Cell Lung Cancer, NCI-H23, 48-h exposure) of the same compound?
Answer: 0.705 µM

Question: What about the CC50 (Homo sapiens, NCI-H23, 48 h, read-out: LC50 (M), Non-Small Cell Lung Cancer, NCI-H23, 48-h exposure) of the same compound?
Answer: > 0.0001 M

Question: And the GI50 (Homo sapiens, NCI-H226, 48 h, Non-Small Cell Lung Cancer, NCI-H226, 48-h exposure)?
Answer: 0.385 µM

Question: What about the CC50 (Homo sapiens, NCI-H226, 48 h, read-out: LC50 (M), Non-Small Cell Lung Cancer, NCI-H226, 48-h exposure) of the same compound?
Answer: > 0.0001 M

Question: What about the GI50 (Homo sapiens, NCI-H322M, 48 h) of the same compound?
Answer: 0.216 µM

Question: And the CC50 (Homo sapiens, NCI-H322M, 48 h, read-out: LC50 (M))?
Answer: > 0.0001 M

Question: What about the GI50 (Homo sapiens, NCI-H460, 48 h, Non-Small Cell Lung Cancer, NCI-H460, 48-h exposure) of the same compound?
Answer: 0.304 µM

Question: What about the CC50 (Homo sapiens, NCI-H460, 48 h, read-out: LC50 (M), Non-Small Cell Lung Cancer, NCI-H460, 48-h exposure) of the same compound?
Answer: 3.11e-05 M
